“Also recorded” adds a separate entry of the source.

As usually defined, the inhibition is the relative decrease from the control value, in per cent.

In data set [1] the test system is K562 cells. Nature of the data set: FITC/Annexin-V apoptosis by flow cytometry, IDR. Particulars: IDR 56 ng/mL; PDCD5 30 μg/mL where combined; 24 hours. The class given is cell-based. On the procedure:
Methods: Cell staining with FITC/Annexin-V and cell apoptosis in vitro detection by flow cytometry: K562 cells (ATCC) were maintained in RPMI 1640 (Life Technologies, USA) supplemented with 10% FBS (Hyclone, USA), and were plated in 24-well culture dishes to a density of 2×10^5 cells/mL. rhPDCD5 protein was added with a final concentration of 7.5 μg/mL, 15 μg/mL and 30 μg/mL, respectively, in each well. Chemotherapeutic drug IDR was then added with a final concentration of 56 ng/mL and RPMI 1640 with 10% FBS was added to make the system to 1 mL. After 24 hours of co-culture, the cells were stained with FITC/Annexin-V (Baosai company) and apoptosis was detected by flow cytometry.
In general terms: Flow cytometry measures light scatter and fluorescence of single cells or particles in a stream.

The test system of data set [2] is K562 cells. Put plainly: clonogenic assay of agarose, IDR. Format: cell-based. Particulars: Homo sapiens, K562, 336 h; IDR 35 ng/mL; PDCD5 15-60 μg/mL where combined; 14 days; read-out: rate of clonogenic inhibition. As for the experimental part:
Clonogenic assay of agarose: Cell concentration was adjusted to 2.5×10^5 cell/mL. NS (control group) was prepared by taking 0.01 mL single-cell suspension, 0.5 mL 1% agarose, and 0.5 mL 2×RPMI 1640 medium containing 20% FCS, to bring the culture system to 1.0 mL. Test groups were prepared by taking 0.01 mL single-cell suspension and 0.5 mL 1% agarose, and taking IDR and PDCD5 diluted with 2×RPMI 1640 medium containing 20% FCS to an appropriated volume (having a final concentration of 35 ng/mL for IDR, and a final concentration of 15 μg/mL, 30 μg/mL, or 60 μg/mL for PDCD5 in each respective test group) and further diluted by adding 2×RPMI 1640 medium containing 20% FCS to 0.5 mL, and bringing the culture system to 1.0 mL. The culture system was added to 24-well plates, with 1 mL per well, and triplicate wells for each group. The plates were incubated in a CO2 incubator for 14 days until colonies formed. The clonogenic number was counted by microscope. A colony with more than 30 cells was counted as one positive colony.

The subject of the next data set is K562 cell xenografts. Nature of the data set: K562 cell xenografts in nude mice, IDR. Format: in vivo, BALB/c nude mice. Particulars: IDR 70 μg. On the procedure:
Methods: BALB/c nude female mice (6-8 weeks of age) were used, and the mice were pretreated by i.p. injections of cyclophosphamide (Jiangsu Hengrui Medicine Co., Ltd.) once daily at a dose of 2 mg per mouse for two consecutive days. After two days of the cyclophosphamide injection, 1.5×10^7 K562 cells were injected subcutaneously into the single flanks of the mouse. The mice bearing K562 cell xenografts were divided randomly into five groups: Normal saline, irrelevant protein, rhPDCD5, IDR (idarubicin, Sigma Company), and IDR plus rhPDCD5. IDR treatments were given every other day i.p. The longest diameter and shortest diameter of tumors were measured by vernier caliper at the beginning of treatment and during the treatment. […] At the end of the experiment, the mice were killed and tumor masses were dissected and then weighed. […] Tumor volume was calculated using the following formula: πls^2/6, where 1=long diameter and s=short diameter.

The subject of data set [3] is mouse livers. Nature of the data set: HE staining of liver paraffin sections of treated K562 xenograft mice. The class given is in vivo, BALB/c nu/nu mice. As for the experimental part: (§1) Methods: BALB/c nu/nu female mice (6-8 weeks of age) were injected intraperitoneally with cyclophosphamide (CTX) (Jiangsu Hengrui Medicine Co., Ltd.), 2 mg/day per mouse for two days. One day after the second cyclophosphamide injection, 1.5×10^7 of K562 cells were injected subcutaneously into the single armpit of each of the mice. The mice bearing K562 cell xenografts were divided randomly into nine groups (n=6, i.e., six mice in each group) and each of the mice was i.p. treated, respectively, with normal saline, PDCD5, IDR (Sigma Corporation), and IDR plus PDCD5. […] At the end of the experiment, mice were killed. The mice were the same batch of that of Example 6. The excised liver of mice after treatment were fixed in 10% neutrally buffered formalin and then embedded in paraffin after dehydration. The paraffin embedding was cut and paraffin sections after HE staining were used to observe the necrosis of experimental mouse livers. Meanwhile, paraffin sections after Tunel (Roche Inc.) staining were used to observe the apoptosis of experimental mouse livers, and then the number of apoptotic cells was counted in five high-power microscope field for statistical analysis.

Data set [4] concerns mouse livers. Put plainly: Tunel staining of liver paraffin sections of treated K562 xenograft mice. Format: in vivo, BALB/c nu/nu mice. Particulars: five high power microscope fields.
Protocol: Methods: BALB/c nu/nu female mice (6-8 weeks of age) were injected intraperitoneally with cyclophosphamide (CTX) (Jiangsu Hengrui Medicine Co., Ltd.), 2 mg/day per mouse for two days. One day after the second cyclophosphamide injection, 1.5×10^7 of K562 cells were injected subcutaneously into the single armpit of each of the mice. The mice bearing K562 cell xenografts were divided randomly into nine groups (n=6, i.e., six mice in each group) and each of the mice was i.p. treated, respectively, with normal saline, PDCD5, IDR (Sigma Corporation), and IDR plus PDCD5. Normal saline, PDCD5 (200 μg, 400 μg, or 800 μg, i.e., 10 mg/kg, 20 mg/kg, or 40 mg/kg, respectively), IDR (25 μg, i.e., 1.25 mg/kg) and IDR (25 μg, i.e., 1.25 mg/kg) plus PDCD5 (200 μg, 400 μg, or 800 μg, i.e., 10 mg/kg, 20 mg/kg, or 40 mg/kg, respectively) were used for intraperitoneal injection every other day for a total of five treatments. […] At the end of the experiment, mice were killed.
The excised liver of mice after treatment were fixed in 10% neutrally buffered formalin and then embedded in paraffin after dehydration. […] Meanwhile, paraffin sections after Tunel (Roche Inc.) staining were used to observe the apoptosis of experimental mouse livers, and then the number of apoptotic cells was counted in five high-power microscope field for statistical analysis.
The test system of the next data set is mice hearts. Nature of the data set: HE staining of heart paraffin sections of treated K562 xenograft mice. The class given is in vivo, BALB/c nu/nu mice. On the procedure: as §1, with “hearts” for “liver”, “myocardial congestion, hemorrhage, and myofiber degeneration” for “necrosis”, “heart” for “experimental mouse livers. Meanwhile, paraffin sections after Tunel (Roche Inc.) staining were used to observe the apoptosis of experimental mouse livers, and then the number of apoptotic cells was counted”, “mice.” for “five high-power microscope field for statistical analysis.”

The next data set relates to mouse bone marrow. Nature of the data set: HE staining of bone marrow paraffin sections of treated K562 xenograft mice. Format: in vivo, BALB/c nu/nu mice. Particulars: combination compared with IDR alone. On the procedure:
Methods: Cyclophosphamide (CTX) (Jiangsu Hengrui Medicine Co., Ltd.) was used for intraperitoneal injection in BALB/c nu/nu female mice (6-8 weeks of age) and injection lasted for two days. One day after the second cyclophosphamide injection, 1.5×10^7 of K562 cells were injected subcutaneously into the single armpit of the mice. The mice bearing K562 cell xenografts were divided randomly into nine groups (n=6, i.e., six mice in each group) and i.p. treated with normal saline, PDCD5, IDR (Sigma Corporation), and IDR plus PDCD5. Normal saline, PDCD5 (200 μg, 400 μg, or 800 μg, i.e., 10 mg/kg, 20 mg/kg, or 40 mg/kg), […]., 1.25 mg/kg) and […]., 1.25 mg/kg) plus PDCD5 (200 μg, 400 μg, or 800 μg, i.e., 10 mg/kg, 20 mg/kg, or 40 mg/kg) were used for intraperitoneal injection and were given every other day for a total of five treatments. […] At the end of the experiment, mice were killed. The mice were the same batch of that in Example 6. The excised bone of mice after treatment were fixed in 10% neutrally buffered formalin and then embedded in paraffin after dehydration. The paraffin embedding was cut and paraffin sections after HE staining were used to count the number of nucleated cells of each group in mouse bone marrow paraffin sections.

The subject of data set [5] is HEK293 cells. Put plainly: PDCD5-FITC internalization, flow cytometry. As to conditions: incubated at 4° C. Format: cell-based. On the procedure: Methods: HEK293 and U937 cells (ATCC) were maintained in RPMI 1640 (Life Technologies, USA), supplemented with 10% heat-inactivated fetal bovine serum (Hyclone, USA), penicillin (100 units/mL), streptomycin (100 μg/mL), and L-glutamine (2 mM). The HEK293 cells were adherent cells with expression of caveolin-1, while the U937 cells were suspension cells without expression of caveolin-1.
The purified rhPDCD5 protein from Example 2 was suspended into 0.025 M sodium carbonate-sodium bicarbonate buffer (pH 9.0). The rhPDCD5 protein was labeled (covalent) by fluorescein isothiocyanate (FITC, Sigma-Aldrich) as described by Masseyeff R. F. et al. (Methods Immunology Analysis 3, 237-238, 1993), and then purified by Sephadex G25 to remove free FITC to obtain PDCD5-FITC protein.
Results: Performance of Flow Cytometry: Quantification of internalized FITC-labeled PDCD5 recombinant protein: HEK293cells were plated in 24-well plates to about 70% confluence, […] FIG. 3. After incubation, the cells were then washed twice, trypsinized, centrifuged, again washed twice with PBS, and finally analyzed by flow cytometry using a FACSCalibur flow cytometer (BD Biosciences).

In another data set the test system is U937 cells. Nature of the data set: PDCD5-FITC internalization, flow cytometry. Format: cell-based. Particulars: incubated at 4° C.
The test system of data set [6] is HEK293 cells. Put plainly: intracellular localization of FITC-labeled PDCD5, fluorescence microscopy. Format: cell-based. As to conditions: 20 μg/mL, 5 hours. As for the experimental part:
Analysis of intracellular localization of the FITC-labeled recombinant PDCD5 protein by fluorescence microscopy: HEK293 cells were grown in specialized glass-bottom microwell dishes (MatTek Corp., USA) to about 50% confluence and washed, and then fresh 10% fetal bovine serum medium and PDCD5-FITC was added to a final concentration of 20 μg/mL. At each time point shown in the drawing, the cells were rinsed twice with PBS buffer and fixed with 2% paraformaldehyde in PBS for 15 min at room temperature. Cells were imaged using a TCS-SP laser-scanning confocal microscope with a 40× or 63×oil immersion lenses (Leica Microsystems, Mannheim, Germany). Nuclei were visualized by Hoechst 33342 (red regions, a pseudocolor).

Setting [7] is: no PDCD5, Imatinib 1.2 mg oral or IDR 25 μg i.p., n=6.

As to `CC(=O)[C@]1(O)Cc2c(O)c3c(c(O)c2[C@@H](O[C@H]2C[C@H](N)[C@H](O)[C@H](C)O2)C1)C(=O)c1ccccc1C3=O` [IDR, idarubicin], the cell apoptosis rate in the data set with K562 cells [1] is on record as 22.57%. For the same molecule, the inhibition at 0.035 µg/mL in the data set on K562 cells [2] came out at 35.5%. In addition, the tumor inhibitory rate in the data set with K562 cell xenografts (PDCD5 local (intratumoral) injection, 60 μg where combined) was found to be 60.27%. Further, the tumor inhibitory rate in the data set with K562 cell xenografts (treatment started at average tumor volume 57.7 mm^3, PDCD5 i.p. 800 μg where combined) is reported as 62.79%. Besides, the “sinusoidal expansion, congestive hemorrhage and necrosis of liver cells surrounding sinusoid (in words)” value with mouse livers [3] (HE staining) is recorded as “significant”. Also, in the data set with mouse livers [3] (setting [7]), the “Sinusoidal expansion, congestive hemorrhage and necrosis of liver cells surrounding sinusoid: mice graded +” value is 3 number of mice; the “Sinusoidal expansion, congestive hemorrhage and necrosis of liver cells surrounding sinusoid: mice graded ++” value is given as 3 number of mice; the “Sinusoidal expansion, congestive hemorrhage and necrosis of liver cells surrounding sinusoid: mice graded +/−” value is recorded as 0 number of mice; the “Sinusoidal expansion, congestive hemorrhage and necrosis of liver cells surrounding sinusoid: mice graded −” value is 0 number of mice. Further, the “number of apoptotic cells in mice liver, IDR alone vs IDR combined with PDCD5” value in the data set on mouse livers [4] is on record as “significantly higher”. For the same molecule, the “myocardial hemorrhage and congestion, and myofiber fracture/degeneration (in words)” value with mice hearts (HE staining) was “significant”. Besides, in the data set with mice hearts (setting [7]), the “Myocardial hemorrhage and congestion: mice graded +” value is 3 number of mice; the “Myocardial hemorrhage and congestion: mice graded ++” value is reported as 3 number of mice; the “Myocardial hemorrhage and congestion: mice graded −” value is on record as 0 number of mice; the “Myofiber degeneration: mice graded +” value is on record as 3 number of mice. Further, the “Myofiber degeneration: mice graded −” value in the data set on mice hearts (setting [7]) was 3 number of mice. The “number of mouse bone marrow nucleated cells” value in the data set on mouse bone marrow was “decreased”.

B1: PDCD5-FITC: rhPDCD5 protein covalently labeled by fluorescein isothiocyanate (conjugate, UniProt O14737 2-125, looked up)
Programmed cell death protein …: ADEELEALRRQRLAELQAKHGDPGDAAQQEAKHREAEMRNSILAQVLDQSARARLSNLALVKPEKTKAVENYLIQMARYGQLSEKVSEQGLIEILKKVSQQTEKTTTVKFNRRKVMDSDEDDDY
modifications: FITC label
notes: rhPDCD5 protein covalently labeled by fluorescein isothiocyanate
For B1, the “internalization (uptake) at 4° C.” value with HEK293 cells [5] and in the data set on U937 cells was “blocked; also recorded: inhibited” in each case. Moreover, in the data set with HEK293 cells [6], the “intracellular localization of fluorescence” value was “localized to discrete compartments in the cytoplasm”.

(Values after US20110009342A1, “USES OF PDCD5 POLYPEPTIDE FOR TUMOR CHEMOTHERAPY AND ORGAN PROTECTION” (priority 2008, published 2011).)
